Source: ChEMBL document CHEMBL5096219, “Design, synthesis and biological evaluation of novel pyrazinone derivatives as PI3K/HDAC dual inhibitors” (Bioorg Med Chem, 2022)
pIC50: −log10 of the molar value.

Assays:
[1] = tested on: MV4-11; experiment: Induction of apoptosis in human MV4-11 cells assessed as total apoptotic cells at 150 nM incubated for 48 hrs by Annexin V-FITC/PI staining based flow cytometry (reference value: 2.99%); assay type: functional
[2] = tested on: MV4-11; experiment: Induction of apoptosis in human MV4-11 cells assessed as late apoptotic cells at 450 nM incubated for 48 hrs by Annexin V-FITC/PI staining based flow cytometry (reference value: 2.04%); assay type: functional
[3] = tested on: MV4-11; experiment: Induction of cell cycle arrest in human MV4-11 cells assessed as accumulation of cells at G0/G1 phase at 50 nM incubated for 48 hrs by […]PI staining based flow cytometry (reference value: 33.1%); assay type: functional
[4] = tested on: MV4-11; experiment: Induction of apoptosis in human MV4-11 cells assessed as early apoptotic cells at 150 nM incubated for 48 hrs by Annexin V-FITC/PI staining based flow cytometry (reference value: 0.95%); assay type: functional
[5] = tested on: MV4-11; experiment: Induction of apoptosis in human MV4-11 cells assessed as viable cells at 450 nM incubated for 48 hrs by Annexin V-FITC/PI staining based flow cytometry (reference value: 96.5%); assay type: functional; conditions: read-out: Activity
[6] = tested on: MV4-11; experiment: Induction of cell cycle arrest in human MV4-11 cells assessed as accumulation of cells at S phase at 450 nM incubated for 48 hrs by […]PI staining based flow cytometry (reference value: 45.5%); assay type: functional
[7] = tested on: MV4-11; experiment: Induction of apoptosis in human MV4-11 cells assessed as late apoptotic cells at 150 nM incubated for 48 hrs by Annexin V-FITC/PI staining based flow cytometry (reference value: 2.04%); assay type: functional
[8] = target: T1, Protein deacetylase HDAC6 (Homo sapiens) (UniProt Q9UBN7); conditions: dose 100.0 nM
T1 sequence (whole entry): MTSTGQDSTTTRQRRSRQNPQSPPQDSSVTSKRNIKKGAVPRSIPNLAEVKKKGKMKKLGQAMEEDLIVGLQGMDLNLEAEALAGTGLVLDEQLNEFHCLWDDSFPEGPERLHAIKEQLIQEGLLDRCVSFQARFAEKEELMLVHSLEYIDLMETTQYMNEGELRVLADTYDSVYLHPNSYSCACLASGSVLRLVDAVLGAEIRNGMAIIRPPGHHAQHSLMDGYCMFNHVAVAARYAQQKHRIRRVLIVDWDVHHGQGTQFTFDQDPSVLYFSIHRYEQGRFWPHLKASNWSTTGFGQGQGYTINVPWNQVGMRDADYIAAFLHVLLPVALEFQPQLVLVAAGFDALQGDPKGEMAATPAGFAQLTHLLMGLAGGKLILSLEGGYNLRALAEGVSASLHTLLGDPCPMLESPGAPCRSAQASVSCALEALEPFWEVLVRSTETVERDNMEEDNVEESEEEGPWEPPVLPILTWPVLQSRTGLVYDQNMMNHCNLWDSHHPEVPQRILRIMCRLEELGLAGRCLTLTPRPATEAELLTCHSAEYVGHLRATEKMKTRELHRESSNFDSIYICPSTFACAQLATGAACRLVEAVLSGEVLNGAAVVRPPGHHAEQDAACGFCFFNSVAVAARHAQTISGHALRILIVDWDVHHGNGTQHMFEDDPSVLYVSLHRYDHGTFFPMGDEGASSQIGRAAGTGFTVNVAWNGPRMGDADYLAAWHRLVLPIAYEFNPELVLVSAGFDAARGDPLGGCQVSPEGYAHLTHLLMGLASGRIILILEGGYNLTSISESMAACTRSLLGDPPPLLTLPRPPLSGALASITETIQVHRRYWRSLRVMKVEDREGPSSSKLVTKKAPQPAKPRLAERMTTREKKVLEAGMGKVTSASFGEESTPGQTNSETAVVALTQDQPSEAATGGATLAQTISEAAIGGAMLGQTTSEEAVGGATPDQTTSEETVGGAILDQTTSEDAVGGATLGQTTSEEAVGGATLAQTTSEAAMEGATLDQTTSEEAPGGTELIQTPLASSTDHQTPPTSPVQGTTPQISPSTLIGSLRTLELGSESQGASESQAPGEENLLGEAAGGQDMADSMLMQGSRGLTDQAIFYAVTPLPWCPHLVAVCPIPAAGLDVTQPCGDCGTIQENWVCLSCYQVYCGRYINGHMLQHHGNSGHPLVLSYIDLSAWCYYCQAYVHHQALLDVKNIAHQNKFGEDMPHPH
Description: Inhibition of HDAC6 (unknown origin) at 100 nM

[9] = tested on: MV4-11; experiment: Induction of apoptosis in human MV4-11 cells assessed as viable cells at 150 nM incubated for 48 hrs by Annexin V-FITC/PI staining based flow cytometry (reference value: 96.5%); assay type: functional; conditions: read-out: Activity
[10] = tested on: MV4-11; experiment: Induction of apoptosis in human MV4-11 cells assessed as early apoptotic cells at 50 nM incubated for 48 hrs by Annexin V-FITC/PI staining based flow cytometry (reference value: 0.95%); assay type: functional
[11] = tested on: MV4-11; experiment: Induction of apoptosis in human MV4-11 cells assessed as late apoptotic cells at 50 nM incubated for 48 hrs by Annexin V-FITC/PI staining based flow cytometry (reference value: 2.04%); assay type: functional
[12] = tested on: MV4-11; experiment: Inhibition of PI3K in human MV4-11 cells assessed as downregulation of phosphorylated AKT expression incubated for 24 hrs by western blot analysis; assay type: cell-based; conditions: dose 0.05-0.45 µM, DDE = dose-dependent effect
[13] = tested on: HCT-116; experiment: Antiproliferative activity against human HCT-116 cells assessed as inhibition of cell proliferation incubated for 72 hrs by MTT assay; assay type: functional, cell-based; conditions: HCT-116, 72 h
[14] = tested on: MV4-11; experiment: Induction of apoptosis in human MV4-11 cells assessed as total apoptotic cells at 450 nM incubated for 48 hrs by Annexin V-FITC/PI staining based flow cytometry (reference value: 2.99%); assay type: functional
[15] = tested on: HepG2; experiment: Antiproliferative activity against human HepG2 cells assessed as inhibition of cell proliferation incubated for 72 hrs by MTT assay; assay type: functional, cell-based; conditions: HepG2, 72 h
[16] = tested on: MV4-11; experiment: Induction of cell cycle arrest in human MV4-11 cells assessed as accumulation of cells at G0/G1 phase at 450 nM incubated for 48 hrs by […]PI staining based flow cytometry (reference value: 33.1%); assay type: functional
[17] = target: Phosphatidylinositol 4,5-bisphosphate 3-kinase catalytic subunit alpha isoform (Homo sapiens, UniProt P42336); experiment: Inhibition of PI3Kalpha (unknown origin) by mobility shift assay
Phosphatidylinositol 4,5-bisphosphate 3-kinase catalytic subunit alpha isoform, sequence (P42336 whole entry, canonical isoform): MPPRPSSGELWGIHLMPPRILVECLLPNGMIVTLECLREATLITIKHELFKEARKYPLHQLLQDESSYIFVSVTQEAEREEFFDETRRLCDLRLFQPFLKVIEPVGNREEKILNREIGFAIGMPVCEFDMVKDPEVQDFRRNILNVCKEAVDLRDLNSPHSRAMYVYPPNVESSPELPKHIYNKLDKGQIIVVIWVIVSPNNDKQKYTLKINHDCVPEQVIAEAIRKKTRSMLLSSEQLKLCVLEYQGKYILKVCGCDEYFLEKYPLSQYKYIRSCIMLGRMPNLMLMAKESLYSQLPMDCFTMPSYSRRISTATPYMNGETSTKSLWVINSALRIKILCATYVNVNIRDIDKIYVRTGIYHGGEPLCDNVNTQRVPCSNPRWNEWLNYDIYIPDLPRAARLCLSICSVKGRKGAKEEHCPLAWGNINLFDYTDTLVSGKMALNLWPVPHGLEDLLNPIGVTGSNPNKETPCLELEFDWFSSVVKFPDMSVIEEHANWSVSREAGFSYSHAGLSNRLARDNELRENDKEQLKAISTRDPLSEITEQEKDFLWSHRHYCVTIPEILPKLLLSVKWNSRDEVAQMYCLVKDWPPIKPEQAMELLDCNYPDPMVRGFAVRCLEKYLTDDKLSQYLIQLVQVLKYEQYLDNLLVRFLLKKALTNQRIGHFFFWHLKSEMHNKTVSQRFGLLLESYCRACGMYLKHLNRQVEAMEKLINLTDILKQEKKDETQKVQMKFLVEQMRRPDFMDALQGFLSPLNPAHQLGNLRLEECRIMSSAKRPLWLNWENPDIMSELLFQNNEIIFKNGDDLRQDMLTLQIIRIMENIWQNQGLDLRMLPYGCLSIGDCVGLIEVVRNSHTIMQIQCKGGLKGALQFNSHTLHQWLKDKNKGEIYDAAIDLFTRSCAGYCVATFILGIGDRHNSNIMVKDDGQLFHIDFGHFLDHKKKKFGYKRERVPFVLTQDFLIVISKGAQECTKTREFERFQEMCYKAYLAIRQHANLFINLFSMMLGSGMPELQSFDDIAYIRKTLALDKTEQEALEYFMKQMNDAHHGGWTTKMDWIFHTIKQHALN

[18] = tested on: MV4-11; experiment: Induction of cell cycle arrest in human MV4-11 cells assessed as accumulation of cells at S phase at 1350 nM incubated for 48 hrs by […]PI staining based flow cytometry (reference value: 45.5%); assay type: functional
[19] = tested on: MV4-11; experiment: Induction of cell cycle arrest in human MV4-11 cells assessed as accumulation of cells at G2/M phase at 450 nM incubated for 48 hrs by […]PI staining based flow cytometry (reference value: 11.5%); assay type: functional
[20] = tested on: MV4-11; experiment: Induction of cell cycle arrest in human MV4-11 cells assessed as accumulation of cells at G0/G1 phase at 1350 nM incubated for 48 hrs by […]PI staining based flow cytometry (reference value: 33.1%); assay type: functional
[21] = tested on: K562; experiment: cells; assay type: functional, cell-based; conditions: Homo sapiens, K562, 72 h
Description: Antiproliferative activity against human K562 cells assessed as inhibition of cell proliferation incubated for 72 hrs by CCK8 assay

O=C(NO)c1ccc(Cn2cc(-c3cccc4[nH]ncc34)nc(N3CCOCC3)c2=O)cc1
Activity [1]: 16.94%
Activity [2]: 46.1%
Activity [3]: 28.4%
Activity [4]: 2.44%
viability at 0.45 µM [5]: 18.7%
Activity [6]: 34.9%
Activity [7]: 14.5%
inhibition [8]: 90%
viability at 0.15 µM [9]: 79.6%
Activity [10]: 3.53%
Activity [11]: 3.67%
inhibition [12]: Dde
pIC50 [13]: 4.79
Activity [14]: 80.7%
pIC50 [15]: 5.92
Activity [16]: 15.1%
pIC50 [17]: 6.43
Activity [18]: 25.2%
Activity [19]: 38.3%
Activity [20]: 15.2%
pIC50 [21]: 6.92
